Tests used:
[1] = test system: normal NK cells expanded with K562-aAPC; assay: percent inhibition of viability; higher = more inhibition; conditions: 72 h, IL-2 2.5 ng/mL
Protocol: (§1)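 Drug sensitivity and resistance testing on K562-aAPC-expanded normal NK cells: 5 concentrations (10-fold steps over a 10,000-fold range), 72 h at 37 °C, viability by CellTiter-Glo normalised to DMSO and benzethonium chloride controls; DSS from the fitted curve.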

[2] = test system: normal NK cells expanded with K562-aAPC; assay: drug sensitivity score (DSS) (DSS units); higher = more sensitive; extreme values may be limits of the assay; conditions: 72 h; IL-2 2.5 ng/mL
Protocol: as §1

[3] = test system: normal primary NK cells, pool 1 (3 donors) (IL-2 2.5 ng/mL); assay: as above; conditions: 72 h
NK-YS (IL-2 2.5 ng/mL) [4] = assay: as above; conditions: 72 h
KAI3 (IL-2 2.5 ng/mL) [5] = assay: as above; conditions: 72 h
[6] = test system: normal primary NK cells, pool 1 (3 donors), resting (IL-2 0 ng/mL); assay: as above; conditions: 72 h
[7] = test system: normal primary NK cells, pool 2 (3 donors) (IL-2 2.5 ng/mL); assay: as above; conditions: 72 h
SNK-6 (IL-2 2.5 ng/mL) [8] = assay: as above; conditions: 72 h
DERL-7 (IL-2 2.5 ng/mL) [9] = assay: as above; conditions: 72 h
[10] = test system: normal primary NK cells, pool 3 (3 donors) (IL-2 2.5 ng/mL); assay: as above; conditions: 72 h
IMC-1 (IL-2 20 ng/mL) [11] = assay: as above; conditions: 72 h
NK-92 (IL-2 2.5 ng/mL) [12] = assay: as above; conditions: 72 h
KHYG-1 (IL-2 2.5 ng/mL) [13] = assay: as above; conditions: 72 h
YT (IL-2 2.5 ng/mL) [14] = assay: as above; conditions: 72 h
NKL (IL-2 2.5 ng/mL) [15] = assay: as above; conditions: 72 h
[16] = test system: normal primary NK cells, pool 1 (3 donors) (IL-2 2.5 ng/mL); assay: percent inhibition of viability; higher = more inhibition; conditions: 72 h
NK-YS (IL-2 2.5 ng/mL) [17] = assay: as above; conditions: 72 h
KAI3 (IL-2 2.5 ng/mL) [18] = assay: as above; conditions: 72 h
[19] = test system: normal primary NK cells, pool 1 (3 donors), resting (IL-2 0 ng/mL); assay: as above; conditions: 72 h
[20] = test system: normal primary NK cells, pool 2 (3 donors) (IL-2 2.5 ng/mL); assay: as above; conditions: 72 h
SNK-6 (IL-2 2.5 ng/mL) [21] = assay: as above; conditions: 72 h
DERL-7 (IL-2 2.5 ng/mL) [22] = assay: as above; conditions: 72 h
[23] = test system: normal primary NK cells, pool 3 (3 donors) (IL-2 2.5 ng/mL); assay: as above; conditions: 72 h
IMC-1 (IL-2 20 ng/mL) [24] = assay: as above; conditions: 72 h
NK-92 (IL-2 2.5 ng/mL) [25] = assay: as above; conditions: 72 h
KHYG-1 (IL-2 2.5 ng/mL) [26] = assay: as above; conditions: 72 h
YT (IL-2 2.5 ng/mL) [27] = assay: as above; conditions: 72 h
NKL (IL-2 2.5 ng/mL) [28] = assay: as above; conditions: 72 h

CC[C@@H]1C(=O)N(C)c2cnc(Nc3ccc(C(=O)NC4CCN(C)CC4)cc3OC)nc2N1C1CCCC1 [BI 2536] (max concentration tested 1000 nM)
percent inhibition of viability [%]
Conditions	0.1 nM	1 nM	10 nM	100 nM	1000 nM
DERL-7 (IL-2 2.5 ng/mL) [22]	-1.78	1.66	56.8	99.1	96.4
IMC-1 (IL-2 20 ng/mL) [24]	-3.03	-6.74	26.6	96.7	95.2
KAI3 (IL-2 2.5 ng/mL) [18]	-2.84	1.84	32	55.7	52.9
KHYG-1 (IL-2 2.5 ng/mL) [26]	-0.33	-0.33	11.5	101	102
NK-92 (IL-2 2.5 ng/mL) [25]	-10.3	-5.85	41.7	99.6	91.2
NK-YS (IL-2 2.5 ng/mL) [17]	1.37	3.08	22.7	66.2	58.4
NKL (IL-2 2.5 ng/mL) [28]	-16.1	-17.7	34.5	66.8	64.5
SNK-6 (IL-2 2.5 ng/mL) [21]	3.37	2.93	50.7	61.7	48.1
YT (IL-2 2.5 ng/mL) [27]	-0.96	-1.95	5.23	77.8	74.1
[1]	1.03	0.31	20.1	60.1	67.4
[16]	-8.51	7.02	-5.03	-6.42	36.1
[19]	4.96	13.2	-4.79	-10.2	31.4
[20]	-11.8	-7.85	-1.58	7	58.2
[23]	-15.6	-13.3	-7.87	-2.57	41.2

Conditions	drug sensitivity score
DERL-7 (IL-2 2.5 ng/mL) [9]	24.6
IMC-1 (IL-2 20 ng/mL) [11]	21.4
KAI3 (IL-2 2.5 ng/mL) [5]	14.1
KHYG-1 (IL-2 2.5 ng/mL) [13]	19.9
NK-92 (IL-2 2.5 ng/mL) [12]	23.4
NK-YS (IL-2 2.5 ng/mL) [4]	15.2
NKL (IL-2 2.5 ng/mL) [15]	16.6
SNK-6 (IL-2 2.5 ng/mL) [8]	17.8
YT (IL-2 2.5 ng/mL) [14]	15
[2]	13.5
[3]	1.36
[6]	0.98
[7]	4.32
[10]	1.86

O=C(Nc1ccc(OC(F)(F)F)cc1)c1sccc1NCc1ccnc2ccccc12 [OSI-930] (max concentration tested 2500 nM)
percent inhibition of viability [%]
Conditions	0.25 nM	2.5 nM	25 nM	250 nM	2500 nM
DERL-7 (IL-2 2.5 ng/mL) [22]	-3.26	4.29	2.35	12.1	10.2
IMC-1 (IL-2 20 ng/mL) [24]	0.84	-1.87	4.98	6.89	18.2
KAI3 (IL-2 2.5 ng/mL) [18]	3.63	-6.37	-2.54	-7.75	4.42
KHYG-1 (IL-2 2.5 ng/mL) [26]	0.6	1.74	3.75	5.69	7.1
NK-92 (IL-2 2.5 ng/mL) [25]	3.89	-3.38	-8.56	11.8	16.6
NK-YS (IL-2 2.5 ng/mL) [17]	-1.68	-3.28	-0.75	3.05	10.1
NKL (IL-2 2.5 ng/mL) [28]	-6.01	-14.6	-5.82	-10.2	7.79
SNK-6 (IL-2 2.5 ng/mL) [21]	2.35	8.65	27.3	16.9	25.4
YT (IL-2 2.5 ng/mL) [27]	-0.61	-3.29	0.94	1	10.3
[1]	0.01	-3.72	-1.42	0.82	7.54
[16]	-1.64	6.46	-0.65	1.58	5.43
[19]	-4.47	-4.58	-9.07	4.32	12.1
[20]	-8.8	-7.72	0	7.78	8.04
[23]	-8.79	-12.1	-5.29	4.46	8.54

Conditions	drug sensitivity score
DERL-7 (IL-2 2.5 ng/mL) [9]	0.66
IMC-1 (IL-2 20 ng/mL) [11]	0.67
KAI3 (IL-2 2.5 ng/mL) [5]	0
KHYG-1 (IL-2 2.5 ng/mL) [13]	0
NK-92 (IL-2 2.5 ng/mL) [12]	1.27
NK-YS (IL-2 2.5 ng/mL) [4]	0
NKL (IL-2 2.5 ng/mL) [15]	0
SNK-6 (IL-2 2.5 ng/mL) [8]	8.62
YT (IL-2 2.5 ng/mL) [14]	0
[2]	0
[3]	0
[6]	0.24
[7]	0
[10]	0

CC1(C)CNc2cc(NC(=O)c3cccnc3NCc3ccncc3)ccc21 [Motesanib] (max concentration tested 10000 nM)
percent inhibition of viability [%]
Conditions	1 nM	10 nM	100 nM	1000 nM	10000 nM
DERL-7 (IL-2 2.5 ng/mL) [22]	8.61	2.19	10.7	-4.45	-7.84
IMC-1 (IL-2 20 ng/mL) [24]	-10.7	-4.04	-2.1	5	16.6
KAI3 (IL-2 2.5 ng/mL) [18]	-8.29	-1.63	-3.65	2.07	23.2
KHYG-1 (IL-2 2.5 ng/mL) [26]	-8.69	-5.06	-3.55	8.47	9.44
NK-92 (IL-2 2.5 ng/mL) [25]	5.17	2.14	10.4	20.8	17.9
NK-YS (IL-2 2.5 ng/mL) [17]	-4.47	-3.14	-5.16	6.4	15
NKL (IL-2 2.5 ng/mL) [28]	-8.65	-10.7	-6.54	20	30.4
SNK-6 (IL-2 2.5 ng/mL) [21]	-15.2	-22.6	-22.4	-32.4	-29.5
YT (IL-2 2.5 ng/mL) [27]	-3.76	-2.12	-1.24	6.34	14.4
[1]	-5.87	-5.96	-6.1	8.26	11.9
[16]	-3.57	3.71	11	2.82	-3.82
[19]	4.22	16.2	15.4	16.6	11.9
[20]	-7.61	1.62	3.62	1.34	2.65
[23]	-2.89	5.36	3.67	3.63	9.45

Conditions	drug sensitivity score
DERL-7 (IL-2 2.5 ng/mL) [9]	0
IMC-1 (IL-2 20 ng/mL) [11]	0.85
KAI3 (IL-2 2.5 ng/mL) [5]	1.11
KHYG-1 (IL-2 2.5 ng/mL) [13]	0
NK-92 (IL-2 2.5 ng/mL) [12]	3.26
NK-YS (IL-2 2.5 ng/mL) [4]	0.73
NKL (IL-2 2.5 ng/mL) [15]	3.62
SNK-6 (IL-2 2.5 ng/mL) [8]	0
YT (IL-2 2.5 ng/mL) [14]	0.65
[2]	0.32
[3]	0
[6]	0
[7]	0
[10]	0

Source: the supplement of paper PMC5908809
